Reference: patent publication US20180200392A1, “DETECTION AND TREATMENT OF RENAL CELL CARCINOMA WITH A SLC6A3 LIGAND LINKED TO A LABEL, CYTOTOXIC OR IMMUNO[…]” (Akuru Pharma AB, priority 2015, published 2018)

What was measured:
[1] = in vivo; cited from earlier work
ccRCC cell lines = conditions: 7 nM [3H]dopamine; uptake correlates with SLC6A3 expression level
Procedure: (§1) Uptake experiments were performed in cells cultivated in 12-well plates at 37° C. The cells of interest were seeded at 80.000 cells/well 48 h before the uptake experiment was performed. The wells were washed in 1×PBS, followed by a wash in 1 ml of assay buffer (Hanks Balanced Salt Solution (HBSS) with CaCl2 and MgCl2, without phenol red supplemented with 10 mM HEPES, pH 7.4) at 37° C. and then incubated with 0.5 ml of buffer for 5 min. […] All uptake experiments were stopped by removing the uptake buffer and adding 1 ml of ice-cold assay buffer to each well and immediately aspirating the buffer and washing three additional times with 1 ml of ice-cold buffer. The incorporated radioactivity was extracted by solubilising the cells with 1% Triton-X for 1 h at R.T, 6 ml of scintillation fluid was thereafter added. The amount of radioactivity was measured with a Tri-carb 2810TR liquid scintillation analyzer (Perkin Elmer).

SLC6A3 = SLC6A3 (Homo sapiens, UniProt Q01959); experiment: [3H]dopamine uptake in ccRCC cell lines in the presence of specific SLC6A3 inhibitors; conditions: GBR12935 30 nM (SKRC10); GBR12909 10-90 nM (KMRC3, SNU-349); 1 h pre-incubation, 5 min uptake; FIG. 8 A-C
Procedure: Data presented as mean±SEM.
as §1

KMRC-3 cells = experiment: SPECT/CT imaging of mice with orthotopically injected KMRC-3 ccRCC cells; format: in vivo; conditions: 5.36 MBq injected 13 weeks after cell injection, imaged after 1 h and 35 min, FIG. 4
Procedure: FIG. 4: SPECT/CT images of a mouse injected with 5.36 MBq (^123I-Ioflupan).
ccRCC cell line KMRC-3 cells were injected orthotopically in mice, 2*10^6 cells in 40 ul PBS. After 13 weeks the mice were injected with 5.36 MBq ^123I-Ioflupan and analysed by SPECT/CT imaging after 1 h and 35 min.

SLC6A3, sequence (Q01959 whole entry): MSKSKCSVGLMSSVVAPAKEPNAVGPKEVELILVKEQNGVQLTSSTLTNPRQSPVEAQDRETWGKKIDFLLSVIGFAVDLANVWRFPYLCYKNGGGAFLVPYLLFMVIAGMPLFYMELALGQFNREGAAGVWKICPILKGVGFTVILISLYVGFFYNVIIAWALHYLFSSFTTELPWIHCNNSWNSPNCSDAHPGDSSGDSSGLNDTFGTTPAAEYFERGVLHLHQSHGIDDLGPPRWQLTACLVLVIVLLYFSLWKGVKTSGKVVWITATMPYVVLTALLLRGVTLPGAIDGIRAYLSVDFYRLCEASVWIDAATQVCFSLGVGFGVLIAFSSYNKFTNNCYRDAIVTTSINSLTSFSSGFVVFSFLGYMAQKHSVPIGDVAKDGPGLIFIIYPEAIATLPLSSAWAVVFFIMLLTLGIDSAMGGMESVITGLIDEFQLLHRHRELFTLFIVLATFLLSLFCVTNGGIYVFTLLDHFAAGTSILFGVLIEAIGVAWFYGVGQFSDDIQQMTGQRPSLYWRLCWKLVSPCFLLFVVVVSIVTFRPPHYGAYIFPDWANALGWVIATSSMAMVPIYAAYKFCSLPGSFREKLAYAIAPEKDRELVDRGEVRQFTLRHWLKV
Procedure for primary ccRCC cells: as §1

Fc1ccc(C(OCCC2CCN(Cc3ccc(I)cc3)CC2)c2ccc(F)cc2)cc1 [FMIP, 4-(2-(bis(4-fluorophenyl)methoxy)ethyl)-1-(4-iodobenzyl)piperidine]
passage of the blood-brain barrier [1]: does not pass the blood-brain barrier

NCCc1ccc(O)c(O)c1 [[H^3]dopamine]
uptake of [3H]dopamine by primary ccRCC cells compared to primary normal cortex cell (primary ccRCC cells; 7 nM [3H]dopamine, 1-20 min, 37° C., FIG. 3 and FIG. 7A): enhanced uptake
uptake of [3H]dopamine by ccRCC cell lines (ccRCC cell lines): take up

c1ccc(CCCN2CCN(CCOC(c3ccccc3)c3ccccc3)CC2)cc1 [GBR12935]
amount of [3H]-dopamine taken up by ccRCC cells in presence of inhibitor (SLC6A3): clearly diminish

COC(=O)[C@@H]1C2CCC(C[C@@H]1c1ccc(I)cc1)N2CCCF (stereo partly drawn) [Ioflupane (^123I), [^123I] N-ω-fluoropropyl-2β-carbomethoxy-3β-(4-iodophenyl)nortropane]
uptake in contralateral kidney lacking injected tumor cells (SPECT/CT) (KMRC-3 cells): no enhanced uptake
uptake in kidney orthotopically injected with KMRC-3 cells (SPECT/CT) (KMRC-3 cells): clearly display enhanced uptake
uptake in contralateral kidney lacking injected tumor cells (SPECT/CT) (KMRC-3 cells; listed as 123I-Ioflupan): no signal could be detected
uptake in kidney orthotopically injected with KMRC-3 cells (SPECT/CT) (KMRC-3 cells; listed as 123I-Ioflupan): uptake

NCCc1ccc(O)c(O)c1 [unlabelled dopamine, dopamine]
[3H]dopamine uptake of primary ccRCC tumor cells in response to competitive unlabelled dopamine (primary ccRCC cells; 7 nM [3H]dopamine with 2 uM or 20 uM unlabelled dopamine for 5 min, FIG. 7A-B): decreased uptake
